Numbered stars: 1 amine (or outer) side, 2 acyl side, 3 side chain; on linkers, the order of the positions; unused ones are H or OH. Bridge positions count the residues as written; N and C are the ends. Square brackets hold non-standard residues; d marks the D form. Primed or numbered codes have the meaning given here. * marks the point of attachment. B5 = bis-pentenylglycine, C=CCCCC(CCCC=C)(N[*:1])C(=O)[*:2]; R8 = C=CCCCCCC[C@@](C)(N)C(=O)O; S8 = C=CCCCCCC[C@](C)(N)C(=O)O; αMeL = CC(C)C[C@](C)(N)C(=O)O; Octanoyl′ = not defined here; S5 = C=CCCC[C@](C)(N)C(=O)O; Myristyl = CCCCCCCCCCCCCC*; Octanoyl = CCCCCCCC(=O)*
Assays:
[1] = tested on: ApoE-ko mice; experiment: Single dose study in ApoE-ko mice, plasma total cholesterol and triglycerides; format: in vivo; settings: for lowering of plasma total cholesterol: ApoE-KO mice, 2.5 μmol/kg i.v. single dose, FIG. 20A; for plasma total cholesterol / plasma triglyceride levels: ApoE-ko mice, 4.6 mg/kg (2.5 μmol/kg) intravenous; for plasma total cholesterol: FIG. 10A; for plasma triglyceride levels: effect transient, FIG. 10B
Description: The effect of OctaC-E139-150 and OctaN-E139-150 peptides were tested in ApoE-ko mice. The mice were kept on a normal chow diet. At 3.5 months of age, 15 mice were divided into three groups of five mice each, as follows: 1) control group; 2) OctaC-E139-150 peptide group; and 3) OctaN-E139-150 peptide group. Peptides were dissolved in PBS at 1.5 mg/ml (810 μM OctaC-E139-150; 849 μM OctaN-E139-150). Mice were weighed one day before peptide administration and peptide amount was calculated for each mouse to receive 4.6 mg/kg peptide (2.5 μmol/kg). The calculated amount of 1.5 mg/ml peptide was placed in a syringe and normalized with PBS to 80 μl. The mice received intravenous injection of PBS (control) or the peptide. Blood samples were collected immediately prior to injection, and 1 hour, 3 hours, and 6 hours after injection. Blood was centrifuged at 3000 rpm at 4° C. for 20 minutes and plasma was separated (20-30 μl) and stored at 4° C. Plasma triglycerides and total cholesterol were measured the next day using L-type triglyceride M assay and The cholesterol E kit (Wako, FUJIFILM Medical Systems USA).
MyrN-E139-150 and OctaN-E139-150 peptides were tested in a single dose ApoE-KO mouse study. ApoE-KO mice (n=9) were divided into 3 groups: control group (PBS), n=3; MyrN-E139-150 (2.5 μmol/kg; 4.6 mg/kg), n=3; and OctaN-E139-150 (2.5 μmol/kg; 4.4 mg/kg), n=3. Mice were fed normal chow diet for the whole study. Peptides were injected i.v. and blood samples were collected at pre-injection and 1 h, 3 h, and 6 h after the injection of the peptides. Measurement of plasma total cholesterol and triglycerides was as described in Example 2. The peptides lowered plasma total cholesterol (FIG. 20A; 37% at 3 h; 29% at 6 h) and triglycerides (FIG. 20B; 30-50% at 1 h).

[2] = tested on: Mouse Hepatitis Virus (MHV); experiment: MHV-GFP replication in HeLa mCC1a cells; format: cell-based; settings: 15 μM peptide, 16 hours, FIG. 11
Source text: Mouse Hepatitis Virus (MHV) is a beta coronavirus that infects mice cells via the murine CEACAM1 receptor (mCC1a receptor). HeLa (human epithelium) cells that have been modified to express the mCC1a receptor can be infected with MHV. The recombinant MHV used in this experiment has been modified such that it contains additional nucleocapsid (N) protein segment which is N-terminally fused with a green fluorescence protein tag (GFP) (see Verheije et al., J. Virol. 84:11575-11579, 2010). When cells are infected with MHV, the MHV replicates generating more GFP and increasing the fluorescent signal.
HeLa mCC1a cells were cultured in a 96 well plate. Cells were infected for 2 hours with MHV-GFP at 37° C. Viral stock solution was diluted 40-fold. Stock was prepared by infecting HeLa cells with MHV-GFP for 3 days and by collecting cellular media. Cells were washed with PBS and treated with media (DMEM plus 10% FBS, 100 IU/ml penicillin G, […] streptomycin, 0.5 mg/ml G418) containing ApoE peptides (15 μM) or media without peptide and incubated for 16 hours at 37° C. Cells were washed with PBS and total GFP fluorescence (ex/em 488/520) in cells was measured on the plate using a fluorescence plate reader.

[3] = tested on: LDLR-ko HepG2 cells; experiment: LDL uptake by heparinase treated LDLR-KO HepG2 cells; format: cell-based; settings: heparinase pretreatment, FIG. 18B
Description: (§1) Involvement of heparan sulfate proteoglycans (HSPGs) in peptide-mediated LDL uptake was tested. WT HepG2 cell were pretreated with a mixture of Heparinase I, II, and III (IBEX Pharmaceuticals) to degrade heparan sulfate chains on the cell surface. Next, LDL uptake studies were performed with OctaC-E139-150-S and MyrN-E141-150-amL peptides (FIGS. 18A-18C). […] Similarly, heparinase treatment attenuated MyrN-E141-150-amL mediated LDL uptake in WT HepG2 cells (FIG. 18C).

[4] = tested on: WT HepG2 cells; experiment: LDL uptake by heparinase treated WT HepG2 cells; format: cell-based; settings: Heparinase I, II, and III pretreatment
Description: as §1

[5] = tested on: LDLR-KO mice; experiment: Single dose LDLR-KO mouse study, plasma total cholesterol; format: in vivo; settings: 2.5 μmol/kg (4.6 mg/kg) i.v. single dose, after 3 h and 6 h of injection, FIG. 21A
Description: MyrN-E141-150-amL and OctaN-E141-150 were tested in a single dose LDLR-KO mouse study. LDLR-KO mice (n=9) were divided into 3 groups: control group (PBS), n=3; MyrN-E141-150-amL (2.5 μmol/kg; 4.6 mg/kg), n=3; and OctaN-E141-150 (2.5 μmol/kg; 4.4 mg/kg), n=3. Mice were fed normal chow diet for the whole study. Peptides were injected i.v. and blood samples were collected at pre-injection and 1 h, 3 h, 6 h and 24 h after the injection of the peptides. Measurement of plasma total cholesterol was as described in Example 2. MyrN-E141-150-amL lowered plasma total cholesterol around 15-30% after 3 h and 6 h of injection (FIG. 21A).

[6] = tested on: WT HepG2 cells; experiment: Effect of heparin on peptide mediated LDL uptake in WT HepG2 cells; format: cell-based; settings: 10 μM peptide, heparin 10 USP/ml, 1 h at 37° C., FIG. 19
Description: Fluorescently labeled LDL (Alexa Fluor 568-NHS ester) at 50 μg/ml final protein concentration was preincubated with or without 10 μM MyrN-E141-150-amL peptide for 30 min at 37° C. (solutions made in DMEM (no phenol red, no serum) with 0.1% BSA). To some LDL and some LDL/peptide samples, heparin was added (10 USP/ml final conc.; heparin, sodium injection from porcine intestinal mucosa (Fresenius Kabi USA, Lake Zurich, IL)). Mixtures were preincubated for additional 5 min at 37° C. Next, WT HepG2 cells were incubated with the LDL/peptide/heparin mixtures for 1 h at 37° C. Lipoprotein uptake was assessed by flow cytometry. Heparin diminished the effect of MyrN-E141-150-amL peptide on LDL uptake in the wild type HepG2 cells (FIG. 19).

[7] = low peptide dose, FIGS. 18A, 18C

Substance | lowering of plasma total cholesterol ([1]; at 3 h) | lowering of plasma total cholesterol ([1]; at 6 h) | MHV-GFP fluorescence (viral replication) [2] | effect of heparinase treatment on peptide mediated LDL uptake [4, 7] | plasma total cholesterol [1] | plasma triglyceride levels [1] | other results
Myristyl-SH(R8)RKLRKR(S5)LR-NH2 (Myristyl-SH[R8]RKLRKR[S5]LR-NH2; staple 3-10; SMILES CCCCCCCCCCCCCCN[C@@H](CO)C(=O)N[C@@H](Cc1c[nH]cn1)C(=O)N[C@]1(C)CCCCCCC=CCCC[C@@](C)(C(=O)N[C@@H](CC(C)C)C(=O)N[C@@H](CCCNC(=N)N)C(N)=O)NC(=O)[C@H](CCCNC(=N)N)NC(=O)[C@H](CCCCN)NC(=O)[C@H](CCCNC(=N)N)NC(=O)[C@H](CC(C)C)NC(=O)[C@H](CCCCN)NC(=O)[C@H](CCCNC(=N)N)NC1=O) [MyrN-E139-150] | 37% | 29% | – | – | – | – | –
Ac-RVR(S5)ASH(B5)RKLRKR(S8)LR-NH2 (Ac-RVR[S5]ASH[B5]RKLRKR[S8]LR-NH2; staple 8-15, 4-8) [E134-150-Stitch] | – | – | dramatic reductions | – | – | – | –
Ac-SH(R8)RKLRKR(S5)LR-Octanoyl (Ac-SH[R8]RKLRKR[S5]LR-{Octanoyl′}; staple 3-10) [OctaC-E139-150] | – | – | dramatic reductions | diminished low dose peptide effect on LDL uptake | significantly decreased | significantly decreased | effect of heparinase treatment on peptide mediated LDL uptake [3]: showed similar results; effect of heparinase treatment on peptide mediated LDL uptake ([4]; higher peptide concentrations, FIG. 18A): heparinase treatment had a lower effect
Myristyl-(R8)RKLRKR(S5)L(alpha-methyl)R-NH2 (Myristyl-[R8]RKLRKR[S5][αMeL]R-NH2; staple 1-8; SMILES CCCCCCCCCCCCCCN[C@]1(C)CCCCCCC=CCCC[C@@](C)(C(=O)N[C@@](C)(CC(C)C)C(=O)N[C@@H](CCCNC(=N)N)C(N)=O)NC(=O)[C@H](CCCNC(=N)N)NC(=O)[C@H](CCCCN)NC(=O)[C@H](CCCNC(=N)N)NC(=O)[C@H](CC(C)C)NC(=O)[C@H](CCCCN)NC(=O)[C@H](CCCNC(=N)N)NC1=O) [MyrN-E141-150-amL] | – | – | – | attenuated | – | – | lowering of plasma total cholesterol [5]: 15-30%; effect of heparin on peptide effect on LDL uptake [6]: diminished
Octanoyl-SH(R8)RKLRKR(S5)LR-NH2 (Octanoyl-SH[R8]RKLRKR[S5]LR-NH2; staple 3-10; SMILES CCCCCCCC(=O)N[C@@H](CO)C(=O)N[C@@H](Cc1c[nH]cn1)C(=O)N[C@]1(C)CCCCCCC=CCCC[C@@](C)(C(=O)N[C@@H](CC(C)C)C(=O)N[C@@H](CCCNC(=N)N)C(N)=O)NC(=O)[C@H](CCCNC(=N)N)NC(=O)[C@H](CCCCN)NC(=O)[C@H](CCCNC(=N)N)NC(=O)[C@H](CC(C)C)NC(=O)[C@H](CCCCN)NC(=O)[C@H](CCCNC(=N)N)NC1=O) [OctaN-E139-150] | 37% | 29% | – | – | significantly decreased | significantly decreased | –
